Measurements reported in ChEMBL document CHEMBL3885881, “DrugMatrix”.

Species: Rattus norvegicus
Test: DrugMatrix - Regimen: Daily Repeat
Assay type: toxicity, organism-based, Sprague-Dawley
Set-up: regimen Daily Repeat, gender Male, age 6-8 weeks
Settings: in vivo, po, route oral GAVAGE, […]; for ABSOLUTE BASOPHIL / ABSOLUTE EOSINOPHIL / ABSOLUTE LYMPHOCYTE / ABSOLUTE MONOCYTE / ABSOLUTE SEGMENTED NEUTROPHIL / BASOPHIL / EOSINOPHIL / ERYTHROCYTE COUNT / HEMATOCRIT / HEMOGLOBIN / LEUKOCYTE COUNT / LYMPHOCYTE / MEAN CORPUSCULAR HEMOGLOBIN / MEAN CORPUSCULAR HEMOGLOBIN CONCENTRATION / MEAN CORPUSCULAR VOLUME / MONOCYTE / NEUTROPHIL / NUCLEATED RED BLOOD CELLS / PLATELET COUNT: tissue Blood; for ALANINE AMINOTRANSFERASE / ALBUMIN / ALKALINE PHOSPHATASE / ASPARTATE AMINOTRANSFERASE / BLOOD UREA NITROGEN / CARBON DIOXIDE / CHLORIDE / CHOLESTEROL / CREATINE PHOSPHOKINASE / CREATININE / GLUCOSE / LACTATE DEHYDROGENASE / LIPASE / PHOSPHORUS / POTASSIUM / SODIUM / TOTAL BILIRUBIN / TOTAL PROTEIN / URIC ACID: tissue Plasma
[1] = 47 mg/kg, 120 h, dose level Low, time 5 day
[2] = 250 mg/kg, 72 h, dose level High, time 3 day
[3] = 250 mg/kg, 120 h, dose level High, time 5 day

## CC(=O)Nc1nnc(S(N)(=O)=O)s1 [ACETAZOLAMIDE]
[1]
  ABSOLUTE BASOPHIL: 0 CELLS/uL
  ABSOLUTE EOSINOPHIL: 0 CELLS/uL
  ABSOLUTE LYMPHOCYTE: 10200 CELLS/uL
  ABSOLUTE MONOCYTE: 261.33 CELLS/uL
  ABSOLUTE SEGMENTED NEUTROPHIL: 672 CELLS/uL
  BASOPHIL: 0%
  EOSINOPHIL: 0%
  ERYTHROCYTE COUNT: 5.43 x10E6/uL
  HEMATOCRIT: 33.83%
  HEMOGLOBIN: 13.43 G/DL
  LEUKOCYTE COUNT: 11.13 x10E3/uL
  LYMPHOCYTE: 91.67%
  MEAN CORPUSCULAR HEMOGLOBIN: 24.73 pg
  MEAN CORPUSCULAR HEMOGLOBIN CONCENTRATION: 39.7 G/DL
  MEAN CORPUSCULAR VOLUME: 62.3 fL
  MONOCYTE: 2.33%
  NEUTROPHIL: 6%
  NUCLEATED RED BLOOD CELLS: 0.33 /100WBC
  PLATELET COUNT: 1186.33 x10E3/uL
  ALANINE AMINOTRANSFERASE: 60.33 u/L
  ALBUMIN: 4.07 G/DL
  ALKALINE PHOSPHATASE: 448.67 u/L
  ASPARTATE AMINOTRANSFERASE: 74.67 u/L
  BLOOD UREA NITROGEN: 14 mg/dL
  CARBON DIOXIDE: 27.67 mmol/L
  CHLORIDE: 104 MEQ/L
  CHOLESTEROL: 61.33 mg/dL
  CREATINE PHOSPHOKINASE: 271.67 u/L
  CREATININE: 0.14 mg/dL
  GLUCOSE: 155 mg/dL
  LACTATE DEHYDROGENASE: 142 u/L
  LIPASE: 10.33 u/L
  PHOSPHORUS: 9.17 mg/dL
  POTASSIUM: 5.17 MEQ/L
  SODIUM: 145.83 MEQ/L
  TOTAL BILIRUBIN: 0.23 mg/dL
  TOTAL PROTEIN: 6.07 G/DL
  URIC ACID: 0.33 mg/dL
[2]
  ABSOLUTE BASOPHIL: 0 CELLS/uL
  ABSOLUTE EOSINOPHIL: 0 CELLS/uL
  ABSOLUTE LYMPHOCYTE: 8200.33 CELLS/uL
  ABSOLUTE MONOCYTE: 117.33 CELLS/uL
  ABSOLUTE SEGMENTED NEUTROPHIL: 382.33 CELLS/uL
  BASOPHIL: 0%
  EOSINOPHIL: 0%
  ERYTHROCYTE COUNT: 5.26 x10E6/uL
  HEMATOCRIT: 32.4%
  HEMOGLOBIN: 12.8 G/DL
  LEUKOCYTE COUNT: 8.7 x10E3/uL
  LYMPHOCYTE: 94.33%
  MEAN CORPUSCULAR HEMOGLOBIN: 24.33 pg
  MEAN CORPUSCULAR HEMOGLOBIN CONCENTRATION: 39.5 G/DL
  MEAN CORPUSCULAR VOLUME: 61.57 fL
  MONOCYTE: 1.33%
  NEUTROPHIL: 4.33%
  NUCLEATED RED BLOOD CELLS: 0 /100WBC
  PLATELET COUNT: 1163 x10E3/uL
  ALANINE AMINOTRANSFERASE: 77 u/L
  ALBUMIN: 3.83 G/DL
  ALKALINE PHOSPHATASE: 352.67 u/L
  ASPARTATE AMINOTRANSFERASE: 83.67 u/L
  BLOOD UREA NITROGEN: 11.67 mg/dL
  CARBON DIOXIDE: 29.67 mmol/L
  CHLORIDE: 101.67 MEQ/L
  CHOLESTEROL: 73.33 mg/dL
  CREATINE PHOSPHOKINASE: 296.33 u/L
  CREATININE: 0.37 mg/dL
  GLUCOSE: 157 mg/dL
  LACTATE DEHYDROGENASE: 154 u/L
  LIPASE: 11.33 u/L
  PHOSPHORUS: 9.67 mg/dL
  POTASSIUM: 4.85 MEQ/L
  SODIUM: 144.27 MEQ/L
  TOTAL BILIRUBIN: 0.2 mg/dL
  TOTAL PROTEIN: 5.67 G/DL
  URIC ACID: 0.33 mg/dL
[3]
  ABSOLUTE BASOPHIL: 0 CELLS/uL
  ABSOLUTE EOSINOPHIL: 64 CELLS/uL
  ABSOLUTE LYMPHOCYTE: 8180.67 CELLS/uL
  ABSOLUTE MONOCYTE: 154.33 CELLS/uL
  ABSOLUTE SEGMENTED NEUTROPHIL: 767.67 CELLS/uL
  BASOPHIL: 0%
  EOSINOPHIL: 0.67%
  ERYTHROCYTE COUNT: 5.67 x10E6/uL
  HEMATOCRIT: 35.23%
  HEMOGLOBIN: 13.9 G/DL
  LEUKOCYTE COUNT: 9.17 x10E3/uL
  LYMPHOCYTE: 89.33%
  MEAN CORPUSCULAR HEMOGLOBIN: 24.53 pg
  MEAN CORPUSCULAR HEMOGLOBIN CONCENTRATION: 39.47 G/DL
  MEAN CORPUSCULAR VOLUME: 62.1 fL
  MONOCYTE: 1.67%
  NEUTROPHIL: 8.33%
  NUCLEATED RED BLOOD CELLS: 0 /100WBC
  PLATELET COUNT: 1233.67 x10E3/uL
  ALANINE AMINOTRANSFERASE: 59 u/L
  ALBUMIN: 4.03 G/DL
  ALKALINE PHOSPHATASE: 354.67 u/L
  ASPARTATE AMINOTRANSFERASE: 71 u/L
  BLOOD UREA NITROGEN: 15 mg/dL
  CARBON DIOXIDE: 23.33 mmol/L
  CHLORIDE: 109.33 MEQ/L
  CHOLESTEROL: 66 mg/dL
  CREATINE PHOSPHOKINASE: 397 u/L
  CREATININE: 0.18 mg/dL
  GLUCOSE: 141.67 mg/dL
  LACTATE DEHYDROGENASE: 111.33 u/L
  LIPASE: 10.33 u/L
  PHOSPHORUS: 8.57 mg/dL
  POTASSIUM: 5.2 MEQ/L
  SODIUM: 146 MEQ/L
  TOTAL BILIRUBIN: 0.17 mg/dL
  TOTAL PROTEIN: 6.1 G/DL
  URIC ACID: 0.53 mg/dL
